Earlier results on two compounds are cited in patent publication US20240358731A1, “SUMO PATHWAY AS AN OXYGEN SENSOR RELEVANT TO THE PATHOPHYSIOLOGY OF PULMONARY ARTERY HYPERTENSION AND CARDIAC ARRHYTHMIA” (Northeastern University, priority 2023, published 2024).

Structures are written as SMILES.

For one series, the system named is SENP1 mRNA. The following applies: cited from earlier work.
Another series has as its system pfSENP1. The following applies: cited from earlier work.

As to `CC(C)[C@]12O[C@H]1[C@@H]1O[C@]13[C@]1(O[C@H]1C[C@H]1C4=C(CC[C@@]13C)C(=O)OC4)[C@@H]2O` [Triptolide], the “SENP1 mRNA levels” value with SENP1 mRNA was “decreased SENP1 mRNA levels”.
For `O=C(O)CN(NC(=O)c1ccc(CNC(=O)c2cccc(C(=O)O)c2)cc1)C(=O)[C@H]1O[C@@H]1C(=O)N(Cc1cccc2ccccc12)Cc1cccc2ccccc12` [JCP-666], in the series with pfSENP1, the pfSENP1 inhibition entry is recorded as “inhibitor”.
